Legend:
IRAK-4 = target: T1, IRAK-4 (Homo sapiens, UniProt Q9NWZ3); experiment: IRAK-4 Enzyme Inhibition Test (LANCE method); format: biochemical; conditions: compound concentration 1 μM; well without enzyme = 100% inhibition; read-out: IRAK4 enzyme inhibitory rate (%) at 1 μM
T1 construct: purchased Carna Biosciences, Inc
T1 sequence (Q9NWZ3 1-460): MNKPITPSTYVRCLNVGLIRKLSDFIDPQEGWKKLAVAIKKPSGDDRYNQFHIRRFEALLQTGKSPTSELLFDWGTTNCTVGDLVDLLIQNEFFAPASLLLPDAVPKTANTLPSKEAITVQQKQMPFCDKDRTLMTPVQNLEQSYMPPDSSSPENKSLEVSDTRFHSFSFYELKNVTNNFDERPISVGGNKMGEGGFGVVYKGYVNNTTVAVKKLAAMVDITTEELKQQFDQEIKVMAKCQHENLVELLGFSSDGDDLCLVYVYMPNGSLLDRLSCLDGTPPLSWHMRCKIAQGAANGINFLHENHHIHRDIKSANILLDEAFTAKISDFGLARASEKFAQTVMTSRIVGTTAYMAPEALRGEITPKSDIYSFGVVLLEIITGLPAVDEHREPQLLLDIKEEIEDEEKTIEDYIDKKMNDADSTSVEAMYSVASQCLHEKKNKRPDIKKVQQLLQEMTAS
Procedure: IRAK-4 enzyme inhibitory activities of test compounds were measured by LANCE method (PerkinElmer). First, a test compound diluted with assay buffer (50 mM HEPES (pH7.5), 10 mM MgCl2, 1 mM EGTA, 2 mM DTT, 0.01% Tween 20, 0.01% BSA) was added to 384-well plate at 2 μL each. Then, IRAK-4 (Carna Biosciences, Inc.) and a fluorescence-labeled peptide substrate (ULight-ACC peptide, PerkinElmer) solution diluted with assay buffer at 240 ng/mL and 37.5 nM, respectively were added at 2 μL each. Then, enzyme reaction was started by adding 2 μL each of ATP solution prepared with assay buffer at 1.5 mM. After the reaction at room temperature for 1 hr, Detection Buffer (PerkinElmer) prepared to be 20 mM EDTA, 1 nM europium-labeled anti-phospho ACC antibody (PerkinElmer) was added at 6 μL each. After standing at room temperature for 1 hr, fluorescence intensity (excitation wavelength 340 nm, fluorescence wavelength 665 nm, delay time 100 microseconds) was measured by a plate reader, Envision (PerkinElmer). The inhibitory activity of each compound was calculated as relative value where fluorescence intensity of a well without enzyme is considered as 100% inhibition.

[1] = test system: tumor necrosis factor (TNFα) production in the serum; experiment: R848 Tolerance Test in Rat; format: in vivo; conditions: Lewis rat serum 1 hr after R848 i.p., mean ± S.E.
Procedure: 6-Week-old male LEW/CrlCrlj (Lewis) rats (Japane Charles River Laboratories) were used as 8 rats/group. R848 (Enzo Life Sciences) was dissolved in dimethyl sulfoxide (500 mM), and the concentration of solution was adjusted to 300 μM with saline, and 1.0 mL thereof was intraperitoneally administered in the rat. The compound was orally administered 1 hr before R848 administration. 0.5% Methyl cellulose (5 mL/kg) was orally administered as a control. The blood was collected from the abdominal aorta 1 hr after R848 administration. The blood was left overnight at 4° C., and the serum was collected by centrifugation. The amount of the tumor necrosis factor (TNFα) production in the serum was measured by […] TNF-alpha Quantikine ELISA Kit (R&D Systems). Shirley-Williams test was used for a dose-dependent manner, and p≦0.05 was evaluated as a significance level.

NC1-induced nephritis = format: in vivo, rat
Procedure: 8-Week-old female WKY rats (Japan Charles River Laboratories) were used as 7 rats/group. Bovine NC1 (The non-collagenous domain of α3 chain of type IV collagen, Chondrex, inc) was dissolved in phosphate buffer to adjust the concentration to 0.3 mg/mL. The equal amount of complete Freund's adjuvant (H37 Ra, Diffco) was added thereto to give an emulsion. The emulsion (0.2 mL) was inoculated intracutaneously into the rat tail head (the 0 day). The compound was orally administered for 5 weeks (the 0 to 35th day, twice a day). 0.5% Methyl cellulose (5 mL/kg) was orally administered as a control. The urine was collected for 4 hr on the −1st day (Pre value) and the 35th day. The collected urine was centrifuged at 400 G, for 5 min at 4° C., the supernatant was kept at −80° C., and the amounts of creatinine and protein were measured. The body weight was measured on the 0th day and the 35th day. A comparison between the groups was analyzed by Dunnett test, and p≦0.05 was evaluated as a significance level.

SMILES | inhibition at 1 µM (IRAK-4) | TNFα production amount ([1]; 0.3 mg/kg orally 1 hr before R848, Control 1090 ± 137) | TNFα production amount ([1]; 1 mg/kg orally 1 hr before R848, Control 1090 ± 137) | TNFα production amount ([1]; 3 mg/kg orally 1 hr before R848, p ≦ 0.05 vs. Control 1090 ± 137) | TNFα production amount ([1]; 10 mg/kg orally 1 hr before R848, p ≦ 0.05 vs. Control 1090 ± 137) | Proteinuria (mg/mg Cre 4 hr), Pre (−1st day) (NC1-induced nephritis; WKY rat, 3 mg/kg group, Pre value (−1st day, before immunisation and dosing), mean ± S.E.) | Proteinuria (mg/mg Cre 4 hr), 35th day (NC1-induced nephritis; WKY rat, 3 mg/kg orally twice a day, 0 to 35th day, mean ± S.E., p ≦ 0.05 vs. Control 31.7 ± 4.26) | Body weight difference from the 0th day on the 35th day (g) (NC1-induced nephritis; rat, in vivo, po, 3 mg/kg) | TNFα production amount ([1]; 0.27 mg/kg orally 1 hr before R848, Control 945 ± 106) | TNFα production amount ([1]; 0.91 mg/kg orally 1 hr before R848, Control 945 ± 106) | TNFα production amount ([1]; 2.73 mg/kg orally 1 hr before R848, Control 945 ± 106) | TNFα production amount ([1]; 9.09 mg/kg orally 1 hr before R848, p ≦ 0.05 vs. Control 945 ± 106)
Cn1cc(NC(=O)c2coc(-c3ccnc(NCC(F)(F)F)c3)n2)c(N2CCN(CCO)C2=O)n1 [Example 57, N-(3-(3-(2-hydroxyethyl)-2-oxoimidazolidin-1-yl)-1-methyl-1H-pyrazol-4-yl)-2-(2-((2,2,2-trifluoroethyl)amino)pyridin-4-yl)-1,3-oxazole-4-carboxamide] | 100% | 1349 ± 181 pg/mL | 736 ± 76.2 pg/mL | 306 ± 45.9 pg/mL | 236 ± 26.8 pg/mL | 0.32 ± 0.05 mg/mg Cre 4 hr | 18.1 ± 2.43 mg/mg Cre 4 hr | +63.7 ± 2.8 g | – | – | – | –
Cn1cc(NC(=O)c2coc(-c3ccnc(NCC(F)(F)F)c3)n2)c(N2CCNC2=O)n1 [Example 58, N-(1-methyl-3-(2-oxoimidazolidin-1-yl)-1H-pyrazol-4-yl)-2-(2-((2,2,2-trifluoroethyl)amino)pyridin-4-yl)-1,3-oxazole-4-carboxamide] | 99% | – | – | – | – | – | – | – | 1070 ± 160 pg/mL | 804 ± 116 pg/mL | 628 ± 31.1 pg/mL | 326 ± 41.1 pg/mL

Reference: patent US9321757B2, “Heterocyclic compound” (Takeda Pharmaceutical Company Limited, priority 2013, dated 2016)
